The target of the experiment is T1, bovine trypsin (Bos taurus, UniProt P00760).
T1 construct: purchased Sigma-Aldrich T8003
T1 sequence (P00760 24-246): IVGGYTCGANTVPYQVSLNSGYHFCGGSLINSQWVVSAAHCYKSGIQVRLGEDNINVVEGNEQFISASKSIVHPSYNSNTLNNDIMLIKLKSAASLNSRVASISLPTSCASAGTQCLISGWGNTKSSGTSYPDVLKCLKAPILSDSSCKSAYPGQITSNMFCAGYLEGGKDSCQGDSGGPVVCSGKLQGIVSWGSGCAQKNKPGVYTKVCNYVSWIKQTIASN
Description: Trypsin inhibition assay (proteolytic activity on BApNA). Type of experiment: biochemical. Conditions: for improvement (of inhibitory effect): compared with 4-aminomethyl benzamidine; for IC50: mean ± SE, three independent measurements, n.d: not detected; for remaining activity at 1000 µM: Concentration 1000000 nM. How it is done:
The inhibition by the benzamidine derivatives against trypsin was measured using an assay probing the enzyme proteolytic activity on the substrate Nα-Benzoyl-DL-arginine-4-nitroanilide hydrochloride (BApNA). […] 5 µl of BApNA solution (10 mM, dissolved in DMSO) were added immediately prior to the measurement. The final total volume was 100 µl per well. The measurements were performed in a Low Binding 384-well plate. The absorption was measured at 410 nm in intervals of 10 sec for 15 min at 37 °C using a Beckman Coulter’s Paradigm Detection Platform (Brea, USA). The measurements were performed in triplicate. The activity of trypsin was calculated by the hydrolysis rate of BApNA after subtraction of the background-hydrolysis rate. The curves were plotted as a function of the concentration of the inhibitor against the relative enzyme activity. Vmax was derived from the detected absorption signal for each concentration and logistic fitting was performed to obtain IC50 values using Origin 2019b (OriginLab).

The mark [1] stands for this setting: Concentration 0.1024 nM, fraction of uninhibited activity, read-out: mean (Figure 3c, dose-response, relative trypsin activity).
Setting [2] is: Concentration 0.512 nM, fraction of uninhibited activity, read-out: mean (Figure 3c, dose-response, relative trypsin activity).
The mark [3] stands for this setting: Concentration 2.56 nM, fraction of uninhibited activity, read-out: mean (Figure 3c, dose-response, relative trypsin activity).
Setting [4] is: Concentration 64 nM, fraction of uninhibited activity, read-out: mean (Figure 3c, dose-response, relative trypsin activity).
Where [5] appears, read: Concentration 320 nM, fraction of uninhibited activity, read-out: mean (Figure 3c, dose-response, relative trypsin activity).
The mark [6] stands for this setting: Concentration 1600 nM, fraction of uninhibited activity, read-out: mean (Figure 3c, dose-response, relative trypsin activity).
Setting [7] is: Concentration 8000 nM, fraction of uninhibited activity, read-out: mean (Figure 3c, dose-response, relative trypsin activity).
The mark [8] stands for this setting: Concentration 40000 nM, fraction of uninhibited activity, read-out: mean (Figure 3c, dose-response, relative trypsin activity).
Setting [9] is: Concentration 200000 nM, fraction of uninhibited activity, read-out: mean (Figure 3c, dose-response, relative trypsin activity).
Setting [10] is: fraction of uninhibited activity, read-out: mean (Figure 3c, dose-response, relative trypsin activity).

The text below walks through data of article PMC10023787, “Trio-pharmacophore DNA-encoded chemical library for simultaneous selection of fragments and linkers” (Nature Communications, 2023).

The term IC50 denotes the concentration at which inhibition is half-maximal. Lower therefore signals higher potency.

As to `N=C(N)c1ccc(CNC(=O)C2CCC(C(=O)NCCNC(=S)Nc3cccc(I)c3)CC2)cc1` (stereo not drawn) [Compound T-3], the “improvement (of inhibitory effect)” value was found to be 30 fold and 2.1 ± 0.4 µM corresponded to half-maximal inhibition (IC50). Further, the remaining activity at 0.0001024 µM under setting [1] was 93.7%. Moreover, the remaining activity at 0.000512 µM under setting [2] was 99.6%. Moreover, under setting [3], the remaining activity at 0.00256 µM was determined as 98.7%. The remaining activity at 0.064 µM under setting [4] stood at 108%. Further, the remaining activity at 0.32 µM under setting [5] was determined as 90.1%. In addition, the remaining activity at 1.6 µM under setting [6] is 56.5%. In addition, the remaining activity at 8 µM under setting [7] stood at 18.3%. Moreover, the remaining activity at 40 µM under setting [8] is 3.2%. Besides, under setting [9], the remaining activity at 200 µM was determined as 0.69%. The remaining activity at 650 µM (Concentration 650000 nM, fraction of uninhibited activity, read-out: mean (Figure 3c, dose-response, relative trypsin activity)) was determined as 0%.
As for `N=C(N)c1ccc(CNC2CC(=O)N(CC3CCC(C(=O)NCCNC(=S)Nc4cccc(I)c4)CC3)C2=O)cc1` (stereo not drawn) [Compound T-5], the “mean (Figure 3c, dose-response, relative trypsin activity)” value reads like this: (Concentration 0.1024 nM, fraction of uninhibited activity) 1.021; (Concentration 0.512 nM, fraction of uninhibited activity) 0.9691; (Concentration 2.56 nM, fraction of uninhibited activity) 0.9977; (Concentration 64 nM, fraction of uninhibited activity) 0.9529; (Concentration 320 nM, fraction of uninhibited activity) 0.962; (Concentration 1600 nM, fraction of uninhibited activity) 0.9553. In addition, the “mean (Figure 3c, dose-response, relative trypsin activity)” value runs as follows: (Concentration 8000 nM, fraction of uninhibited activity) 0.8147; (Concentration 40000 nM, fraction of uninhibited activity) 0.4599; (Concentration 200000 nM, fraction of uninhibited activity) 0.1722; (Concentration 650000 nM, fraction of uninhibited activity) 0.07286; (Concentration […], fraction of uninhibited activity) 0.9721.
As for `N=C(N)c1ccc(CN)cc1` [4-Aminomethyl benzamidine, 4-aminomethyl benzamidine, reference compound], half-maximal inhibition (IC50) required 147 µM. For the same compound, under setting [1], the remaining activity at 0.0001024 µM stood at 108%. In addition, the remaining activity at 0.000512 µM under setting [2] is 96.5%. In addition, the remaining activity at 0.00256 µM under setting [3] was 102%. The remaining activity at 0.064 µM under setting [4] came to 110%. The remaining activity at 0.32 µM under setting [5] amounted to 101%. Besides, the remaining activity at 1.6 µM under setting [6] stood at 106%. Also, the remaining activity at 8 µM under setting [7] worked out at 103%. Further, under setting [8], the remaining activity at 40 µM worked out at 82.5%. For the same compound, the remaining activity at 200 µM under setting [9] worked out at 44.6%. Besides, under setting [10], the remaining activity at 1000 µM was 12.9%.
As to `S=C=Nc1ccccc1I` [Compound B, 2-iodophenyl isothiocyanate, reference compound], the remaining activity at 0.0001024 µM under setting [1] came to 103%. Further, under setting [2], the remaining activity at 0.000512 µM was determined as 102%. Besides, the remaining activity at 0.00256 µM under setting [3] was 94.8%. Also, under setting [4], the remaining activity at 0.064 µM was found to be 107%. For the same compound, under setting [5], the remaining activity at 0.32 µM was 107%. For the same compound, the remaining activity at 1.6 µM under setting [6] is 100%. The remaining activity at 8 µM under setting [7] stood at 108%. The remaining activity at 40 µM under setting [8] turned out to be 105%. Under setting [9], the remaining activity at 200 µM was 114%. In addition, the remaining activity at 1000 µM under setting [10] was found to be 90.1%. Also, the inhibitory effect result (in words) is “did not display any detectable inhibitory effect”.
In the case of `N=C(N)c1ccc(CNCc2ccc(C(=O)NCCNC(=S)Nc3cccc(I)c3)cc2)cc1` [Compound T-2], the “improvement (of inhibitory effect)” value was found to be 70 fold and 5.2 ± 2.2 µM corresponded to half-maximal inhibition (IC50). For the same compound, under setting [1], the remaining activity at 0.0001024 µM amounted to 105%. The remaining activity at 0.000512 µM under setting [2] is 104%. Further, the remaining activity at 0.00256 µM under setting [3] worked out at 106%. Under setting [4], the remaining activity at 0.064 µM worked out at 109%. Besides, under setting [5], the remaining activity at 0.32 µM stood at 97.3%. Moreover, the remaining activity at 1.6 µM under setting [6] was 81.2%. In addition, the remaining activity at 8 µM under setting [7] is 37.4%. The remaining activity at 40 µM under setting [8] is 7.09%. For the same compound, the remaining activity at 200 µM under setting [9] came out at 1.08%. The remaining activity at 365 µM (Concentration 365000 nM, fraction of uninhibited activity, read-out: mean (Figure 3c, dose-response, relative trypsin activity)) came out at 0.681%.
